The values below come from US10189819B2, “Factor IXa inhibitors” (MERCK SHARP & DOHME CORP., priority 2014, dated 2019).

For this assay, the target named is Factor IXa (Homo sapiens (Human), UniProt P00740). The experiment in a line: Determination of inhibitory activity against Factor IXa (cleavage of fluorescent peptide CH3SO2-D-CHG-Gly-Arg-AFC). The assay is classed as biochemical. As for the experimental part: Determination of Inhibitory Activity Against Factor IXa
Formation of a clot to stem bleeding at a site of blood vessel injury involves the coordinated activity of a group of plasma proteins that initiate and propagate fibrin formation and subsequently protect fibrin from premature degradation. Factor IX is a key component of the plasma system that forms a fibrin clot at a site of vascular injury. The activity of Factor IXa is measured by monitoring the cleavage of the fluorescent peptide, CH3SO2-D-CHG-Gly-Arg-AFC.AcOH (“CHG” is cyclohexyl-glycine and “AFC” is trifluoro aminomethyl coumarin). Factor IXa cleaves the amide bond between Arg and AFC, thereby releasing the AFC fluorophore. The free AFC can be detected with a fluorescence detector at an excitation wavelength of 405 nm and emission wavelength of 510 nm.

Where two headings read alike, the source gives them in different places.

Usually IC50 stands for the point on the concentration scale where inhibition reaches its midpoint.

Factor IXa, sequence (P00740 227-461): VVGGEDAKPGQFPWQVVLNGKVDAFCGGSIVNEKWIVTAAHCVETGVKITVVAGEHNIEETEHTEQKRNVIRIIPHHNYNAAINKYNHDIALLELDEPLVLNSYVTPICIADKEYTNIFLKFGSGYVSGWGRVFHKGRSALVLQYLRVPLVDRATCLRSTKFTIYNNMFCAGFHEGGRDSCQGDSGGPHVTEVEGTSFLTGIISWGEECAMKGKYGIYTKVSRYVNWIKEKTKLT
Factor IXa, sequence (P00740 47-191 partner): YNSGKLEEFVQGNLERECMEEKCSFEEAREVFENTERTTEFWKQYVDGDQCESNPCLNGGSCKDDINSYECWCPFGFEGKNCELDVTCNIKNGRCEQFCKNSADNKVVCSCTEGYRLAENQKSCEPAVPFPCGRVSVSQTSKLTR

Take `Cc1ncn(-c2cc(Cl)c(C(=O)NCC(c3ccccc3)c3nc4cc(C)c(C)cc4[nH]3)c(C(F)(F)F)c2)n1` (centres unmarked) [Example 4]: the IC50 (read-out: hFIXa IC50) amounted to 0.0631 µM. On the same count and under the same terms, the value for `Cc1ccc(F)c2nc([C@@H](CNC(=O)c3ccc(-c4ccc(=O)n(C)c4)cc3Cl)c3cccc(F)c3)[nH]c(=O)c12` [Example 108] was 0.0092 µM; that for `COc1ncn(-c2ccc(C(=O)NCC(c3cccc(F)c3)c3nc4ccc(Cl)cc4[nH]3)c(Cl)c2)n1` (centres unmarked) [Example 13] was 0.0658 µM. In the case of `Cc1ncn(-c2cc(Cl)c(C(=O)NC[C@@H](c3cccc(F)c3)c3nc4c(F)ccc(Cl)c4c(=O)[nH]3)c(Cl)c2)n1` [Example 94, (R)-2,6-dichloro-N-(2-(5-chloro-8-fluoro-4-oxo-3,4-dihydroquinazolin-2-yl)-2-(3-fluorophenyl)ethyl)-4-(3-methyl-1H-1,2,4-triazol-1-yl)benzamide], where the note is “read-out: FIXa IC50”, the IC50 was found to be 0.0035 µM. In the case of `COc1cc2nc(C(CNC(=O)c3c(Cl)cc(-n4cnc(C)n4)cc3Cl)n3cc(C(C)(C)O)nn3)[nH]c2cc1Cl` (centres unmarked) [Example 73], the 50% inhibitory concentration (IC50) (read-out: hFIXa IC50) came out at 0.0344 µM. As for `COc1cc2nc(C(CNC(=O)c3c(Cl)cc(-n4cnc(C)n4)cc3Cl)c3cccc(CC(=O)O)c3)[nH]c2cc1Cl` (centres unmarked) [Example 62], the IC50 (read-out: hFIXa IC50) is 0.00175 µM. For `Cc1ncn(-c2cc(Cl)c(C(=O)NC[C@@H](c3cccc(F)c3)c3cnc4[nH]c(C)nc4c3)c(Cl)c2)n1` [Example 76, (S)-2,6-dichloro-N-(2-(3-fluorophenyl)-2-(2-methyl-3H-imidazo[4,5-b]pyridin-6-yl)ethyl)-4-(3-methyl-1H-1,2,4-triazol-1-yl)benzamide], for the setting “read-out: FIXa IC50”, the 50% inhibitory concentration (IC50) is 0.0806 µM. On the same count and under the same terms, the figure for `Cc1cc2cc([C@@H](CNC(=O)c3c(Cl)cc(-n4cnnc4)cc3Cl)c3ccccc3)[nH]c2cc1C` [Example 74, (R)-2,6-dichloro-N-(2-(5,6-dimethyl-1H-indol-2-yl)-2-phenylethyl)-4-(4H-1,2,4-triazol-4-yl)benzamide] is 0.0291 µM. As to `Cc1cc2nc(C(CNC(=O)c3c(Cl)cc(-c4ccc(C(=O)O)nc4)cc3Cl)c3ccccc3)[nH]c2cc1C` (centres unmarked) [Example 26], under “read-out: hFIXa IC50”, the IC50 came to 0.312 µM. `Cc1cc2nc(C(CNC(=O)c3ccc(-n4cc(CCO)nn4)cc3Cl)c3ccccc3)[nH]c2cc1C` (centres unmarked) [Example 3]: the IC50 (read-out: hFIXa IC50) worked out at 0.0219 µM. As for `Cc1cc2nc(C(CNC(=O)c3ccc(-n4cnnc4)cc3Cl)c3cccc(F)c3)[nH]c2cc1C` (centres unmarked) [Example 50], for the setting “read-out: hFIXa IC50”, the IC50 worked out at 0.00569 µM. The same measure, in the same setting: the figure for `Cc1cc2nc(C(CNC(=O)c3c(Cl)cc(-c4cncnc4)cc3Cl)c3ccccc3)[nH]c2cc1C` (centres unmarked) [Example 17] is 0.0181 µM. With `COc1cc2nc(C(CNC(=O)c3c(Cl)cc(-n4cnc(C)n4)cc3Cl)c3cccc(C(=O)O)c3)[nH]c2cc1Cl` (centres unmarked) [Example 59], the IC50 (read-out: hFIXa IC50) was 0.0015 µM.

In the case of `Cc1ccc2nc(C(CNC(=O)c3ccc(-n4cnnc4)cc3Cl)c3ccccc3)[nH]c2c1` (centres unmarked) [Example 44], the IC50 (read-out: hFIXa IC50) was found to be 0.0535 µM. Consider `COc1cc2nc([C@@H](CNC(=O)c3c(Cl)cc(-n4cnc(C)n4)cc3Cl)c3ccc(C(=O)O)cc3)[nH]c2cc1Cl` [Example 60], for which the IC50 (read-out: hFIXa IC50) was 0.00479 µM.

In the case of `Cc1ncn(-c2cc(Cl)c(C(=O)NC[C@@H](c3cccc(F)c3)c3nc4ccc(Cl)cc4[nH]3)c(Cl)c2)n1` [Example 46], where the note is “read-out: hFIXa IC50”, the IC50 is 0.00978 µM. For the compound `Cc1cc2nc(C(CNC(=O)c3c(Cl)cc(-n4cc(CCO)nn4)cc3Cl)c3ccccc3)[nH]c2cc1C` (single isomer, unassigned) [Example 1], the IC50 (read-out: FIXa IC50) is 0.0104 µM. Consider `O=C(O)c1ccc2ncn(-c3ccc(C(=O)NCC(c4cccc(F)c4)c4nc5c(F)ccc(Cl)c5c(=O)[nH]4)c(Cl)c3)c2c1` (centres unmarked) [Example 104], for which the IC50 (read-out: hFIXa IC50) was determined as 0.00197 µM. Take `COc1cc(-n2cnnc2)cc(Cl)c1C(=O)NCC(c1ccccc1)c1nc2cc(C)c(C)cc2[nH]1` (centres unmarked) [Example 9]: the IC50 (read-out: hFIXa IC50) worked out at 0.0149 µM. On to `O=C(NC[C@@H](c1ccccc1)c1nc2c(Cl)ccc(Cl)c2c(=O)[nH]1)c1ccc(-n2cnnc2)cc1Cl` [Example 99], for which the IC50 (read-out: hFIXa IC50) turned out to be 0.0431 µM. The same measure, in the same setting: the value for `Cc1cc2nc(C(CNC(=O)c3c(Cl)cc(-c4cnc(C5CC5)nc4)cc3Cl)c3ccccc3)[nH]c2cc1C` (centres unmarked) [Example 29] was 0.653 µM. Consider `Cc1ccc2nc([C@@H](CNC(=O)c3ccc(-n4cnnc4)cc3Cl)c3ccccc3)[nH]c(=O)c2c1` [Example 91, (R)-2-Chloro-N-(2-(6-methyl-4-oxo-3,4-dihydroquinazolin-2-yl)-2-phenylethyl)-4-(4H-1,2,4-triazol-4-yl)benzamide], for which the IC50 (read-out: FIXa IC50) was found to be 0.189 µM. With `Cc1cc2nc([C@@H](CNC(=O)c3ccc(-n4cnnn4)cc3Cl)c3ccccc3)[nH]c2cc1C` [Example 12], where the note is “read-out: hFIXa IC50”, the IC50 was determined as 0.0783 µM. On to `Cc1cc2nc(C(CNC(=O)c3c(Cl)cc(-c4cnn(CCO)c4)cc3Cl)c3ccccc3)[nH]c2cc1C` (centres unmarked) [Example 31], for which, where the note is “read-out: hFIXa IC50”, the IC50 was 0.0653 µM.

With `COc1cc2nc(C(CNC(=O)c3c(Cl)cc(-n4cnc(C)n4)cc3Cl)n3cc(CO)nn3)[nH]c2cc1Cl` (racemic) [Example 71, (±)-2,6-Dichloro-N-(2-(6-chloro-5-methoxy-1H-benzo[d]imidazol-2-yl)-2-(4-(hydroxymethyl)-1H-1,2,3-triazol-1-yl)ethyl)-4-(3-methyl-1H-1,2,4-triazol-1-yl)benzamide], the IC50 (read-out: FIXa IC50) was determined as 0.0205 µM. For the compound `CCOC(=O)c1cccc([C@H](CNC(=O)c2c(Cl)cc(-n3cnc(C)n3)cc2Cl)c2nc3cc(OC)c(Cl)cc3[nH]2)c1` [Example 66], the IC50 (read-out: hFIXa IC50) turned out to be 0.0168 µM. As for `Cc1ccc2nn([C@@H](CNC(=O)c3c(Cl)cc(-n4cnnc4)cc3Cl)c3ccccc3)nc2c1` [Example 89, (R)-2,6-dichloro-N-(2-(5-methyl-2H-benzo[d][1,2,3]triazol-2-yl)-2-phenylethyl)-4-(4H-1,2,4-triazol-4-yl)benzamide], the IC50 (read-out: FIXa IC50) came to 0.0209 µM. For `Cc1cc(Cl)cc2[nH]c(C(CNC(=O)c3ccc(-n4cnnc4C)cc3Cl)c3cccc(F)c3)nc12` (centres unmarked) [Example 15], the IC50 (read-out: hFIXa IC50) came out at 0.0049 µM. With `Cc1ccc2c([C@H](CNC(=O)c3ccc(-n4cnnc4)cc3Cl)c3ccccc3)n[nH]c2c1` [Example 88, (S)-2-chloro-N-(2-(6-methyl-1H-indazol-3-yl)-2-phenylethyl)-4-(4H-1,2,4-triazol-4-yl)benzamide], the IC50 (read-out: FIXa IC50) is 0.0688 µM. Turning to `COc1cc2nc([C@@H](CNC(=O)c3c(Cl)cc(-n4cnc(C)n4)cc3Cl)c3ccc(C(N)=O)cc3)[nH]c2cc1Cl` [Example 58], the IC50 (read-out: hFIXa IC50) came out at 0.00236 µM. Regarding `Cc1cc2nc(C(CNC(=O)c3c(Cl)cc(-c4cncc(CO)c4)cc3Cl)c3ccccc3)[nH]c2cc1C` (centres unmarked) [Example 34], the IC50 (read-out: hFIXa IC50) amounted to 0.0103 µM.

As to `Cc1cc2nc(C(CNC(=O)c3c(C)cc(-n4cnnc4)cc3Cl)c3ccccc3)[nH]c2cc1C` (centres unmarked) [Example 11], the IC50 (read-out: hFIXa IC50) came out at 0.00805 µM. `Cc1ncn(-c2cc(Cl)c(C(=O)NC[C@@H](c3ccc(C(=O)O)cc3)c3nc4c(C)cc(Cl)cc4[nH]3)c(Cl)c2)n1` [Example 41, (R)-4-(1-(6-Chloro-4-methyl-1H-benzo[d]imidazol-2-yl)-2-(2,6-dichloro-4-(3-methyl-1H-1,2,4-triazol-1-yl)benzamido)ethyl)benzoic acid]: where the note is “read-out: FIXa IC50”, the IC50 was 0.0186 µM. With `Cc1cc2nc([C@@](C)(CNC(=O)c3c(Cl)cc(-n4cnnc4)cc3Cl)c3ccc(F)cc3)[nH]c2cc1C` [Example 70], under “read-out: FIXa IC50”, the IC50 is 0.0056 µM.

As to `Cc1ncn(-c2cc(Cl)c(C(=O)NCC(c3cccc(F)c3)c3nc4cc(C)c(C)cc4[nH]c3=O)c(Cl)c2)n1` (centres unmarked) [Example 116], the IC50 (read-out: hFIXa IC50) amounted to 0.0511 µM.

Regarding `Cc1cc2nc(C(CNC(=O)c3c(Cl)cc(-n4cnnc4)cc3Cl)c3ccc(F)cc3)[nH]c2cc1C` (centres unmarked) [Example 53], the IC50 (read-out: hFIXa IC50) is 0.00282 µM.

In the case of `Cc1ncn(-c2cc(C)c(C(=O)NCC(c3ccccc3)c3nc4cc(C)c(C)cc4[nH]3)c(Cl)c2)n1` (centres unmarked) [Example 8], the IC50 (read-out: hFIXa IC50) was 0.00699 µM. As to `O=C(NC[C@@H](c1ccccc1)c1nc2ccc(Cl)cc2c(=O)[nH]1)c1ccc(-n2cnnc2)cc1Cl` [Example 96], the IC50 (read-out: hFIXa IC50) was determined as 0.188 µM. Consider `Cc1cc2nc(C(CNC(=O)c3c(Cl)cc(-n4cnnc4)cc3C(F)(F)F)c3ccccc3)[nH]c2cc1C` (centres unmarked) [Example 5], for which the IC50 (read-out: hFIXa IC50) was 0.0218 µM. Still for that read-out and setting: the value for `Cc1cc2nc(C(CNC(=O)c3c(Cl)cc(-c4cnc(OCCF)nc4)cc3Cl)c3ccccc3)[nH]c2cc1C` (centres unmarked) [Example 21] was 0.378 µM. For `CCOC(=O)c1ccc([C@H](CNC(=O)c2c(Cl)cc(-n3cnc(C)n3)cc2Cl)c2nc3c(C)cc(Cl)cc3[nH]2)cc1` [Example 42, (R)-Ethyl 4-(1-(6-chloro-4-methyl-1H-benzo[d]imidazol-2-yl)-2-(2,6-dichloro-4-(3-methyl-1H-1,2,4-triazol-1-yl)benzamido)ethyl)benzoate], under “read-out: FIXa IC50”, the IC50 is 0.0391 µM.

For the compound `CNC(=O)c1cccc([C@H](CNC(=O)c2c(Cl)cc(-n3cnc(C)n3)cc2Cl)c2nc3cc(OC)c(Cl)cc3[nH]2)c1` [Example 61], the IC50 (read-out: hFIXa IC50) came to 0.00478 µM. On the same count and under the same terms, the figure for `O=C(NC[C@@H](c1ccccc1)c1nc2cccc(Cl)c2c(=O)[nH]1)c1ccc(-n2cnnc2)cc1Cl` [Example 97] is 0.0515 µM. Regarding `Cc1ncn(-c2cc(Cl)c(C(=O)NC[C@@H](c3cccc(F)c3)c3cc(F)c4[nH]c(C)nc4c3)c(Cl)c2)n1` [Example 79], for the setting “read-out: hFIXa IC50”, the IC50 was found to be 0.00642 µM. Same read-out and setting: the figure for `Cc1cccc2[nH]c(C(CNC(=O)c3ccc(-n4cnnc4)cc3Cl)c3ccccc3)nc12` (centres unmarked) [Example 45] is 0.622 µM. Take `O=C(NC[C@@H](c1ccc(F)cc1)c1nc2ccc(Cl)cc2o1)c1c(Cl)cc(-n2cnnc2)cc1Cl` [Example 43, (R)-2,6-Dichloro-N-(2-(6-chlorobenzo[d]oxazol-2-yl)-2-(4-fluorophenyl)ethyl)-4-(4H-1,2,4-triazol-4-yl)benzamide]: the IC50 (read-out: FIXa IC50) amounted to 0.0962 µM. Turning to `COC(=O)c1ccc(-c2cc(Cl)c(C(=O)NCC(c3ccccc3)c3nc4cc(C)c(C)cc4[nH]3)c(Cl)c2)cn1` (centres unmarked) [Example 23], the IC50 (read-out: hFIXa IC50) turned out to be 0.544 µM.
